Data reported in publication PMC7165421 (Proceedings of the National Academy of Sciences of the …, 2020).

Assays:
[1] = system: AR binding from chromatin; details: ChIP assays; cited from earlier work
ARE/Scr dsDNA = assay: DNA binding by fluorescence polarization, ARE/Scr dsDNA; details: ΔNTD AR expressed and purified in presence of enzalutamide (20 μM) vs DHT
ΔNTD AR = assay: Peptide binding by fluorescence polarization; set-up: species or system mouse
ARE dsDNA = assay: DNA binding by fluorescence polarization, minimal ARE dsDNA; details: ΔNTD AR, specificity control
AR LBD = details: cited from earlier work
[2] = system: ARE containing double-stranded DNA (dsDNA) templates; assay: DNA binding by fluorescence polarization, all ARE dsDNAs tested; details: FL AR relative to ΔNTD AR, DHT-bound

Which results are given for `CNC(=O)c1ccc(N2C(=S)N(c3ccc(C#N)c(C(F)(F)F)c3)C(=O)C2(C)C)cc1F` [ENZ, enzalutamide]?
displacement of AR from chromatin [1]: displaces AR binding from chromatin in cells; reduction of AR DNA binding relative to DHT (ARE/Scr dsDNA): twofold

With QIQLWHFILELLRKEEY [ERF AIM] as the molecule, how does the “affinity compared to the ERG AIM” value (ΔNTD AR; ΔNTD AR) read?
The value was “slightly less than the ERG AIM”.

For “bovine serum albumin (BSA): specificity control”, which “stimulation of AR DNA binding” value (ARE dsDNA) is on record?
Its value is “failed to stimulate AR”.

Which “affinity of AF1 for AR LBD” value (AR LBD) does the source give for KTYRGAFQNLFQSVREA [AF1] here?
Its value is “micromolar”.

And the “binding to ΔNTD AR with full-length ERG present” value (ΔNTD AR; equimolar full-length ERG, fluorescein-labeled AF1 peptide)?
Its value is “further decrease in AF1 binding”.

And the “affinity for ΔNTD AR compared to ERG AIM peptide” value (ΔNTD AR; presence and absence of DNA, fluorescein-labeled AF1 peptide)?
Its value is “more than an order of magnitude reduced affinity”.

B1: FL AR: recombinant AR with the N terminus intact (protein)
chain: MEVQLGLGRVYPRPPSKTYRGAFQNLFQSVREAIQNPGPRHPEAANIAPPGACLQQRQETSPRRRRRQQHTEDGSPQAHIRGPTGYLALEEEQQPSQQQAASEGHPESSCLPEPGAATAPGKGLPQQPPAPPDQDDSAAPSTLSLLGPTFPGLSSCSADIKDILNEAGTMQLLQQQQQQQQHQQQHQQHQQQQEVISEGSSARAREATGAPSSSKDSYLGGNSTISDSAKELCKAVSVSMGLGVEALEHLSPGEQLRGDCMYASLLGGPPAVRPTPCAPLPECKGLPLDEGPGKSTEETAEYSSFKGGYAKGLEGESLGCSGSSEAGSSGTLEIPSSLSLYKSGALDEAAAYQNRDYYNFPLALSGPPHPPPPTHPHARIKLENPLDYGSAWAAAAAQCRYGDLGSLHGGSVAGPSTGSPPATTSSSWHTLFTAEEGQLYGPGGGGGSSSPSDAGPVAPYGYTRPPQGLTSQESDYSASEVWYPGGVVNRVPYPSPNCVKSEMGPWMENYSGPYGDMRLDSTRDHVLPIDYYFPPQKTCLICGDEASGCHYGALTCGSCKVFFKRAAEGKQKYLCASRNDCTIDKFRRKNCPSCRLRKCYEAGMTLGARKLKKLGNLKLQEEGENSNAGSPTEDPSQKMTVSHIEGYECQPIFLNVLEAIEPGVVCAGHDNNQPDSFAALLSSLNELGERQLVHVVKWAKALPGFRNLHVDDQMAVIQYSWMGLMVFAMGWRSFTNVNSRMLYFAPDLVFNEYRMHKSRMYSQCVRMRHLSQEFGWLQITPQEFLCMKALLLFSIIPVDGLKNQKFFDELRMNYIKELDRIIACKRKNPTSCSRRFYQLTKLLDSVQPIARELHQFTFDLLIKSHMVSVDFPEMMAEIISVQVPKILSGKVKPIYFHTQ
For B1, which “impairment of DNA binding by presence of NTD” value [2] is on record?
Its value is “greater than 10 fold”.
